Drawing on US20160083391A1, “TRICYCLIC PIPERAZINE DERIVATIVE” (Sunovion Pharmaceuticals Inc., priority 2014, published 2016), this text covers IC50 for 24 compounds.

The test deals with PDE1. Briefly: In vitro HTRF PDE1 inhibition assay. It counts as biochemical. Particulars: HTRF cGMP assay, 100 nM cyclic GMP, PDE (1A3, 1B or 1C) with calmodulin, 45 minutes at 37° C.; isoform of the tabulated values not stated. The text has this: An exemplary procedure for the in vitro Homogenous Time Resolved Fluorescence assay, which can be used to determine the inhibitory action of compounds of the invention toward. PDE1 or its isoforms, follows.
The HTRF PDE1 assay utilized the HTRF (Homogenous Time Resolved Fluorescence) technology, which is based on the competition between unlabeled cyclic nucleotide and cyclic nucleotide labeled with XL665 for the binding to cyclic nucleotide-specific antibody labeled with cryptate. The HTRF signal is thus inversely proportional to the concentration of cyclic nucleotide being measured. Since phosphodiesterases break down cyclic nucleotides the HTRF signal was used to determine PDE activity.
The Cisbio cGMP HTRF assay kit (Cat no: 62GM2PEC) was utilized. Cyclic GMP was diluted to 200 nM in HTRF assay buffer (1 mM CaCl2, 10 mM MgCl2, 10 mM Tris-HCl, 0.1% BSA, pH7.4). 10 μl of compound or DMSO was diluted in 200 nM cyclic GMP solution and added to wells of a 96 well white plate to give 100 nM cyclic GMP in 1% DMSO final concentration. PDE (1A3, 1B or 1C) was diluted to 2× working concentration in HTRF assay buffer with […] Calmodulin, and 10 μl was added to initiate the reaction. The plate was then incubated for 45 minutes at 37° C. d2-Labelled cyclic GMP and anti-cGMP cryptate were diluted in 50 mM phosphate buffer, 0.8M KF, 1% Triton X100, 0.2% BSA, pH7.0. Following incubation 10 μl d2-cGMP, then 10 μl anti cGMP cryptate were added to each well and the plate was incubated for 45 minutes at room temperature. The plate was then read on Perkin Elmer Victor at 2 different FRET readings ex/emm 340 nm/665 nm and 340 nm/615 nm.
Compounds having an IC50 of <1 μM, are denoted as +++. Compounds having an IC50 of 1-10 μM, are denoted as ++. Compounds having an IC50 of >10 μM, are denoted as +.
Background: In TR-FRET formats the signal depends on donor and acceptor labels being close together.

As for `CC(C)c1nn(C)c2c(=O)n3c(nc12)C(C)N(Cc1ccccc1)CC3` (racemic) [Compound I-47, (±)-6-Benzyl-3-isopropyl-1,5-dimethyl-5,6,7,8-tetrahydropyrazino[1,2-a]pyrazolo[4,3-d]pyrimidin-10(1H)-one], the IC50 – broadly, the concentration at which inhibition is half-maximal – is > 10 µM.
The figure for `CC(C)c1nn(C)c2c(=O)n3c(nc12)C(Cc1ccccc1)N(Cc1ccccc1)CC3` (racemic) [Compound I-48, (±)-5,6-Dibenzyl-3-isopropyl-1-methyl-5,6,7,8-tetrahydropyrazino[1,2-a]pyrazolo[4,3-d]pyrimidin-10(1H)-one] is > 10 µM; for `CC(C)CC1c2nc3c(cnn3C(C)C)c(=O)n2CCN1Cc1ccccc1` (racemic) [Compound I-56, (±)-8-benzyl-9-isobutyl-1-isopropyl-6,7,8,9-tetrahydropyrazino[1,2-a]pyrazolo[3,4-d]pyrimidin-4(1H)-one] it is 1 to 10 µM; for `CC(C)n1ncc2c(=O)n3c(nc21)C(c1ccccc1)N(C)CC3` (racemic) [Compound I-60, (±)-1-Isopropyl-8-methyl-9-phenyl-6,7,8,9-tetrahydropyrazino[1,2-a]pyrazolo[3,4-d]pyrimidin-4(1H)-one] it is > 10 µM.
Regarding `CC1CNCc2nc3c(cnn3C3CCCC3)c(=O)n21` (racemic) [Compound I-99, (±)-1-cyclopentyl-6-methyl-6,7,8,9-tetrahydropyrazino[1,2-a]pyrazolo[3,4-d]pyrimidin-4(1H)-one], the IC50 was > 10 µM.
For `CC1CN(C)Cc2nc3c(cnn3C3CCCC3)c(=O)n21` (racemic) [Compound I-100, (±)-1-Cyclopentyl-6,8-dimethyl-6,7,8,9-tetrahydropyrazino[1,2-a]pyrazolo[3,4-d]pyrimidin-4(1H)-one], the IC50 was > 10 µM.
The figure for `CC1CN(Cc2ccccc2)Cc2nc3c(cnn3C3CCCC3)c(=O)n21` (racemic) [Compound I-101, (±)-8-Benzyl-1-cyclopentyl-6-methyl-6,7,8,9-tetrahydropyrazino[1,2-a]pyrazolo[3,4-d]pyrimidin-4(1H)-one] is 1 to 10 µM.
Consider `CN1Cc2nc3c(cnn3C3CCCC3)c(=O)n2C(c2ccccc2)C1` (racemic) [Compound I-102, (±)-1-cyclopentyl-8-methyl-6-phenyl-6,7,8,9-tetrahydropyrazino[1,2-a]pyrazolo[3,4-d]pyrimidin-4(1H)-one], for which the IC50 is > 10 µM.
With `CC1Cn2c(nc3c(cnn3C(C)C)c2=O)CN1` (racemic) [Compound I-103, (±)-1-Isopropyl-7-methyl-6,7,8,9-tetrahydropyrazino[1,2-a]pyrazolo[3,4-d]pyrimidin-4(1H)-one], the IC50 is > 10 µM.
As for `CC1Cn2c(nc3c(cnn3C(C)C)c2=O)CN1C` (racemic) [Compound I-104, (±)-1-Isopropyl-7,8-dimethyl-6,7,8,9-tetrahydropyrazino[1,2-a]pyrazolo[3,4-d]pyrimidin-4(1H)-one], the IC50 is > 10 µM.
Take `CC1Cn2c(nc3c(cnn3C(C)C)c2=O)CN1Cc1ccccc1` (racemic) [Compound I-105, (±)-8-Benzyl-1-isopropyl-7-methyl-6,7,8,9-tetrahydropyrazino[1,2-a]pyrazolo[3,4-d]pyrimidin-4(1H)-one]: the IC50 was < 1 µM.
Consider `CC(C)n1ncc2c(=O)n3c(nc21)CNC(c1ccccc1)C3` (racemic) [Compound I-106, (±)-1-isopropyl-7-phenyl-6,7,8,9-tetrahydropyrazino[1,2-a]pyrazolo[3,4-d]pyrimidin-4(1H)-one], for which the IC50 is > 10 µM.
With `CC(C)n1ncc2c(=O)n3c(nc21)CN(C)C(c1ccccc1)C3` (racemic) [Compound I-107, (±)-1-Isopropyl-8-methyl-7-phenyl-6,7,8,9-tetrahydropyrazino[1,2-a]pyrazolo[3,4-d]pyrimidin-4(1H)-one], the IC50 is > 10 µM.
As to `CC(C)n1ncc2c(=O)n3c(nc21)CN(Cc1ccccc1)C(c1ccccc1)C3` (racemic) [Compound I-108, (±)-8-Benzyl-1-isopropyl-7-phenyl-6,7,8,9-tetrahydropyrazino[1,2-a]pyrazolo[3,4-d]pyrimidin-4(1H)-one], the IC50 was > 10 µM.
Take `CC(C)n1ncc2c(=O)n3c(nc21)CNC(Cc1ccccc1)C3` (racemic) [Compound I-109, (±)-7-Benzyl-1-isopropyl-6,7,8,9-tetrahydropyrazino[1,2-a]pyrazolo[3,4-d]pyrimidin-4(1H)-one]: the IC50 was > 10 µM.
Turning to `CC(C)n1ncc2c(=O)n3c(nc21)CN(C)C(Cc1ccccc1)C3` (racemic) [Compound I-110, (±)-7-Benzyl-1-isopropyl-8-methyl-6,7,8,9-tetrahydropyrazino[1,2-a]pyrazolo[3,4-d]pyrimidin-4(1H)-one], the IC50 was > 10 µM.
The compound `CC(c1ccc(Cl)cc1)N1CCn2c(nc3c(cnn3C3CCCC3)c2=O)C1` (racemic) [Compound I-113, (±)-8-(1-(4-Chlorophenyl)ethyl)-1-cyclopentyl-6,7,8,9-tetrahydropyrazino[1,2-a]pyrazolo[3,4-d]pyrimidin-4(1H)-one] displayed an IC50 of 1 to 10 µM.
Regarding `COc1ccc(C(C)N2CCn3c(nc4c(cnn4C4CCCC4)c3=O)C2)cc1` (racemic) [Compound I-114, (±)-1-Cyclopentyl-8-(1-(4-methoxyphenyl)ethyl)-6,7,8,9-tetrahydropyrazino[1,2-a]pyrazolo[3,4-d]pyrimidin-4(1H)-one], the IC50 was in the range of 1 to 10 µM.
`CC1c2nc3c(cnn3C3CCCC3)c(=O)n2CCN1Cc1ccc(Cl)cc1` (racemic) [Compound I-117, (±)-8-(4-Chlorobenzyl)-1-cyclopentyl-9-methyl-6,7,8,9-tetrahydropyrazino[1,2-a]pyrazolo[3,4-d]pyrimidin-4(1H)-one]: the IC50 lay within 1 to 10 µM.
In turn, `COc1ccc(CN2CCn3c(nc4c(cnn4C4CCCC4)c3=O)C2C)cc1` (racemic) [Compound I-118, (±)-1-Cyclopentyl-8-(4-methoxybenzyl)-9-methyl-6,7,8,9-tetrahydropyrazino[1,2-a]pyrazolo[3,4-d]pyrimidin-4(1H)-one] returned an IC50 of 1 to 10 µM.
In the case of `CC1Cn2c(nc3c(cnn3C3CCCC3)c2=O)CN1Cc1ccc(Cl)cc1` (racemic) [Compound I-119, (±)-8-(4-Chlorobenzyl)-1-cyclopentyl-7-methyl-6,7,8,9-tetrahydropyrazino[1,2-a]pyrazolo[3,4-d]pyrimidin-4(1H)-one], the 50% inhibitory concentration (IC50) was < 1 µM.
Take `COc1ccc(CN2Cc3nc4c(cnn4C4CCCC4)c(=O)n3CC2C)cc1` (racemic) [Compound I-120, (±)-1-Cyclopentyl-8-(4-methoxybenzyl)-7-methyl-6,7,8,9-tetrahydropyrazino[1,2-a]pyrazolo[3,4-d]pyrimidin-4(1H)-one]: the IC50 is < 1 µM.
As for `CC1CN(Cc2ccc(Cl)cc2)Cc2nc3c(cnn3C3CCCC3)c(=O)n21` (racemic) [Compound I-121, (±)-8-(4-Chlorobenzyl)-1-cyclopentyl-6-methyl-6,7,8,9-tetrahydropyrazino[1,2-a]pyrazolo[3,4-d]pyrimidin-4(1H)-one], the IC50 is 1 to 10 µM.
The compound `COc1ccc(CN2Cc3nc4c(cnn4C4CCCC4)c(=O)n3C(C)C2)cc1` (racemic) [Compound I-122, (±)-1-Cyclopentyl-8-(4-methoxybenzyl)-6-methyl-6,7,8,9-tetrahydropyrazino[1,2-a]pyrazolo[3,4-d]pyrimidin-4(1H)-one] came in with an IC50 of 1 to 10 µM.
